Results reported in patent US9707417B2, “Use of benzotropolone derivatives as UV absorbers and antioxidants and their use in sunscreens and/or cosmetic compositions” (BASF SE, priority 2008, dated 2017).
Entries after “also recorded” stand apart in the source; their conditions may differ.

Columns and labels:
[1] = UV shielding properties (UV spectra in ethanol); type: physicochemical; set-up: Absorption maximum 1 λmax / Absorption maximum 2 λmax: unit not given here; conditions: for Absorption maximum 1 A^1%1 cm / Absorption maximum 1 λmax / Absorption maximum 2 A^1%1 cm / Absorption maximum 2 λmax: UV spectra in ethanol
From the text: The UV shielding properties of the benzotropolone derivatives were investigated by measuring their UV spectra in ethanol.
In the following table the investigated absorption maxima (λmax) together with the corresponding A^1%1cm values are listed.

[2] = Measurement of photostability (irradiation of highly diluted solution of the UV-filter, analysis by UV-spectroscopy); type: physicochemical; conditions: for Half time: photostability, diluted solution in ethanol, first order kinetic model, half-life under conditions of COLIPA standard sun irradiation
Method: The method used for assessment of photostability is based on the irradiation of a highly diluted solution of the UV-filter.
The analysis after certain doses of irradiation is performed by UV-spectroscopy. The concentration of the UV-absorber in ethanol is adjusted to values between 1·10^−5 and 1·10^−6 mol/l, such that the absorbance of the solution in cuvette of 1 cm optical path length is ≦than 0.2. The mutual protection of filter molecules can be excluded under such conditions.
Prior to irradiation of a sample the UVB-intensity at the sample position is measured with a UV-radiometer (RM-12, Dr. Gröbel Electronic GmbH).
This radiometer is calibrated by comparison with a measurement of the spectral output of the metal halide lamp (including light guide and cut-off filter) using a wavelength-resolved radiometer (Gamma C11).
Therefore the relationship of the reading of the RM-12 radiometer and the corresponding spectral output of the lamp is known, and one is able to determine the wavelength-resolved intensities by measuring the UVB-intensity. By changing the distance between the end of the light guide and the cuvette, the UVB-intensity can be varied in the range of 100 μW/cm^2 and 4500 μW/cm^2.
For sample irradiation the highest possible intensity was used (4.5 mW/cm^2 UVB-intensity measured with the Macam 103 radiometer).
The irradiation time is varied from 0 to 180 min.
The dose the sample has received after 180 min corresponds to 60 MED.
During irradiation the sample was stirred. After certain intervals of irradiation, the samples were analyzed in a UV-spectrometer (Perkin Elmer, Lambda 16).
From the absorbance values at each dose of irradiation the concentration may be calculated using Lambert-Beer's law.
In order to get the half-life of the substance, a first order kinetic model was fitted to the experimental data. Since the UV-spectrum of the lamp and the UV-spectrum of the COLIPA standard sun are known, one can calculate the respective half-life of the UV-absorber under conditions of COLIPA standard sun irradiation [Bernd Herzog, Stefan Müller, Myriam Sohn, Uli Osterwalder, “New Insight and Prediction of Photostability of Sunscreens”, SÖFW Journal 133, 26-36 (2007)].

[3] = DPPH assay (antioxidative / antiradical activity); type: biochemical; conditions: comparison with vitamin C, vitamin E, resveratrol
From the text: For tests of antioxidative activity, the DPPH assay is used. DPPH (2,2-Diphenyl-1-picryl-hydrazyl) is a stable radical, which absorbs in its radical form at 515 nm. Upon reduction by an antioxidant (AH), the absorption disappears: DPPH.+AH→DPPH—H+A. (1)
The rate of reaction (1) can be rather different for different antioxidants.
In the test, the ratio of the molar concentrations of the antioxidant and DPPH is varied (this ratio is named “EC”=efficient concentration), and the concentration of DPPH in the equilibrium state is measured for each ratio. […] The smaller the EC50 value, the more efficient is the antioxidant. Thus, the inverse, 1/EC50, can be used to quantify the antiradical power.
Solutions of DPPH and the antioxidants in ethanol are prepared separately and added together for starting the reaction (0.5 cm^3 of a 250 μM antioxidant solution is added to 2.5 cm^3 of a 100 μM DPPH solution). The absorption is measured using a Perkin Elmer Lambda 20 spectrophotometer.

Solubility in water = type: physicochemical

SMILES	Absorption maximum 1 A^1%1 cm [1]	Absorption maximum 1 λmax [1]	Absorption maximum 2 A^1%1 cm [1]	Absorption maximum 2 λmax [1]	shielding properties in the UV region (in words) [1]	photostability (in words) [2]	Half time [2] [h]	antioxidant/radical scavenging power compared to state-of-the-art antioxidants (in words) [3]	Solubility in water (Solubility in water) [%]
Cc1cc2cc(C(=O)O)cc(O)c(=O)c2c(O)c1O [Compound B-31]	1065	281	477	393					
COC(=O)c1cc(O)c(=O)c2c(OC)c(O)c(OCCO)cc2c1 [Compound B-45]	804	306	302	401					
COC(=O)c1cc(O)c(=O)c2c(O)c(O)cc(CCC(=O)O)c2c1 [Compound B-62]	799	281	383	406					
O=c1c(O)cccc2cc(O)c(O)c(O)c12 [Compound B-1]	935	281	1179	305	high shielding properties in the UV region; also recorded: high absorption in the UV-C and UV-B region	high photostability	31.5		
O=C(O)c1cc(O)c(=O)c2c(O)c(O)c(O[C@@H]3O[C@H](CO)[C@@H](O)[C@H](O)[C@H]3O)cc2c1 [Compound B-59]	497	300	174	388					
COC(=O)c1cc(O)c(=O)c2c(O)c(O)c(C)cc2c1 [Compound B-6]	997	280	447	396	high shielding properties in the UV region; also recorded: UV-C/UV-B shielding properties as well as UV-A shielding properties				
COc1cc2cc(CO)cc(O)c(=O)c2c(O)c1O [Compound B-50]	1027	305							
CCCCCCCCCCCCOc1cc2cc(C(=O)OC)cc(O)c(=O)c2c(O)c1O [Compound B-35]	611	310	231	404					
COC(=O)c1cc(O)c(=O)c2c(O)c(O)cc(CCO)c2c1 [Compound B-52]	437	280	176	399					
CCCCCCCCCCCCOc1cc2cc(C(=O)OCCCCCCCC)cc(O)c(=O)c2c(O)c1O [Compound B-33]	575	310	210	403					
CCOC(=O)CCCCCOc1cc2cc(C(=O)O)cc(O)c(=O)c2c(O)c1O [Compound B-36]	750	309	250	398		high photostability	22.8		
COC(=O)c1cc(O)c(=O)c2c(O)c(O)c(O[C@@H]3O[C@H](COC(C)=O)[C@H](OC(C)=O)[C@H](OC(C)=O)[C@H]3OC(C)=O)cc2c1 [Compound B-37]	394	285	88	393					
COC(=O)c1cc(O)c(=O)c2c(O)c(O)ccc2c1 [Compound B-3]	1007	277	516	395	high shielding properties in the UV region; also recorded: UV-C/UV-B shielding properties as well as UV-A shielding properties	extraordinary high inherent photostability	61.9		
CCCCCCCCOC(=O)c1cc(O)c(=O)c2c(O)c(O)c(C)cc2c1 [Compound B-34]	748	282	333	398					
COC(=O)c1cc(O)c(=O)c2c(O)c(O)c(OC)cc2c1 [Compound B-5]	1008	308	399	403	high shielding properties in the UV region; also recorded: UV-C/UV-B shielding properties as well as UV-A shielding properties	extraordinary high inherent photostability	116.5		
COC(=O)c1cc(O)c(=O)c2c(O)c(O)c(OCCCCCC(=O)O)cc2c1 [Compound B-15]	754	310	269	398					
CCCCc1ccc2c(CCCC)c(O)c(O)c(O)c2c(=O)c1O [Compound B-55]	788	311							
CCc1ccc2c(CC)c(O)c(O)c(O)c2c(=O)c1O [Compound B-54]	1142	309							
O=C(O)c1cc(O)c(=O)c2c(O)c(O)ccc2c1 [Compound B-2]	966	276	460	400	high shielding properties in the UV region; also recorded: UV-C/UV-B shielding properties as well as UV-A shielding properties	high photostability	33.6		
CCCCCCCC/C=C\CCCCCCCCOc1cc2cc(C(=O)OC)cc(O)c(=O)c2c(O)c1O [Compound B-32]	574	310	203	404		high photostability	16.6		
CCCCCCCCCCCCOC(=O)c1cc(O)c(=O)c2c(O)c(O)c(OCCCCCCCCCCCC)cc2c1 [Compound B-53]	533	309	193	402					
COC(=O)c1cc(O)c(=O)c2c(O)c(O)c(OCCCO[C@@H]3O[C@H](CO)[C@@H](O)[C@H](O)[C@H]3O)cc2c1 [Compound B-13]	573	310	208	404		high photostability	51.3	more effective in the DPPH assay than the state-of-the-art antioxidant resveratrol	10.467
O=C(O)CCCCCOc1cc2cc(C(=O)O)cc(O)c(=O)c2c(O)c1O [Compound B-19]	726	308	236	397		high photostability	40.1		
Cc1cc2cc(CO)cc(O)c(=O)c2c(O)c1O [Compound B-61]	711	295							
Cc1cc2cc(C(=O)NCCCCP(=O)(O)O)cc(O)c(=O)c2c(O)c1O [Compound B-49]	601	278	270	381					
COC(=O)c1cc(O)c(=O)c2c(O)c(O)c(O[C@@H]3O[C@H](CO)[C@H](O)[C@H](O)[C@H]3O)cc2c1 [Compound B-16]	550	288	204	397					
COC(=O)c1cc(O)c(=O)c2c(O)c(O)c(O[C@@H]3O[C@H](CO)[C@@H](O)[C@H](O)[C@H]3O)cc2c1 [Compound B-7]	593	287	246	399					
COc1cc2cc(C(=O)O)cc(O)c(=O)c2c(O)c1O [Compound B-4]	864	307	305	396	high shielding properties in the UV region; also recorded: UV-C/UV-B shielding properties as well as UV-A shielding properties	high photostability	16.6		
